Measured values taken from patent US20100249172A1, “9-CHLORO NOSCAPINE AND ITS USE IN TREATING CANCERS, INCLUDING DRUG-RESISTANT CANCERS” (EMORY UNIVERSITY, priority 2007, published 2010).

Assays:
[1] = tested on: CEM cells; test: MTS cell proliferation assay; format: cell-based, human
Experimental: Suspension cells (CEM) were seeded into 96-well plates at a density of 5×10^3 cells per well and were treated with increasing concentrations of all halogenated analogs for 72 hours. Measurement of cell proliferation was performed colorimetrically by 3-(4,5-dimethylthiazol-2-yl)-5-(3-carboxymethoxyphenyl)-2-(4-sulphophenyl)-2H-tetrazolium, inner salt (MTS) assay, using the CellTiter96 AQueous One Solution Reagent (Promega, Madison, Wis.). Cells were exposed to MTS for 3 hours and absorbance was measured using a microplate reader (Molecular Devices, Sunnyvale, Calif.) at an optical density (OD) of 490 nm. The percentage of cell survival as a function of drug concentration for both the assays was then plotted to determine the IC50 value, which stands for the drug concentration needed to prevent cell proliferation by 50%.
Having identified tubulin as the target molecule, the pharmacological study was extended at the cellular level to determine if all the halogenated analogs affected cancer cell proliferation. As a preliminary screen, 9-chloro-nos and noscapine were evaluated for their antiproliferative activity in three human cancer cell lines; human breast adenocarcinoma cells (estrogen- and progesterone-receptor positive, MCF-7 and estrogen- and progesterone-receptor negative, MDA-MB-231) and human lymphoblastoid cells CEM. […]

[2] = tested on: 1A9 (ovarian cancer cells); test: Inhibition of cell proliferation; format: cell-based
[3] = tested on: MCF-7 cells; test: Cell cycle analysis by flow cytometry (propidium iodide); format: cell-based, human; conditions: for G0/G1 % / G2/M % / S % / Sub-G1 %: mean ± S.E.M.
Experimental: The flow cytometric evaluation of the cell cycle status was performed as described previously. Briefly, 2×10^6 cells were centrifuged, washed twice with ice-cold PBS, and fixed in 70% ethanol. Tubes containing the cell pellets were stored at 4° C. for at least 24 hours. Cells were then centrifuged at 1000×g for 10 min and the supernatant was discarded. The pellets were washed twice with 5 ml of PBS and then stained with 0.5 ml of propidium iodide (0.1% in 0.6% Triton-X in PBS) and 0.5 ml of RNase A (2 mg/ml) for 45 minutes in dark. Samples were then analyzed on a FACSCalibur flow cytometer (Beckman Coulter Inc., Fullerton, Calif.).
To investigate the precise mechanisms of cell death, the effect of 9-cloro-noscapine and other halogenated noscapine analogs on percent G2/M cells (mitotic index) and percent sub-G1 cells (apoptotic index) was examined as a function of dose and time in MCF-7 cells using fluorescence activated cell sorting (FACS) analysis. The effect of all compounds including noscapine was evaluated at three doses-5 μM, 10 μM and 25 μM for 0, 24, 48 and 72 hours of drug treatment. […] Fluorescently labeled DNA is a good indicator of cell cycle progression and cell death. An unreplicated complement of diploid (2N) DNA cells represents the G1 phase while duplicated tetraploid (4N) DNA cells represent G2 and M phases. Cells in the process of DNA duplication between diploid and tetraploid peaks represent S phase when DNA is being synthesized. Less than diploid DNA appears in populations of dying cells that degrade their DNA to different extents. Treatment of MCF-7 cells with these compounds for 0, 24, 48 and 72 hours led to profound perturbations of the cell cycle profile at 25 μM (FIGS. 3 A-D). […] The distribution of cell population over G0/G1, S, G2/M and sub-G1 phases of the cell cycle for 25 μM concentration is shown in Table 1.

[4] = tested on: CEM/VM-1-5 (teniposide-resistant variant); test: Inhibition of cell proliferation; format: cell-based, human
[5] = tested on: 1A9/PTX22 (paclitaxel-resistant variant); test: Inhibition of cell proliferation; format: cell-based
[6] = tested on: MCF-7 cells; test: Immunofluorescence confocal microscopy of spindle architecture and nuclear morphology; format: cell-based, human; conditions: 25 μM, 0, 12, 24, 48 and 72 hours
Experimental: Cells adhered to poly-L-lysine coated coverslips were treated with noscapine, 9-chloro-noscapine, and other halogenated analogs (9-F-nos, 9-Br-nos, and 9-I-nos) for 0, 12, 24, 48 and 72 hours. After treatment, cells were fixed with cold (−20° C.) methanol for 5 min and then washed with phosphate-buffered saline (PBS) for 5 min. Non-specific sites were blocked by incubating with 100 μl of 2% BSA in PBS at 37° C. for 15 min. A mouse monoclonal antibody against α-tubulin (DM1A, Sigma) was diluted 1:500 in 2% BSA/PBS (100 μl) and incubated with the coverslips for 2 hours at 37° C. Cells were then washed with 2% BSA/PBS for 10 min at room temperature before incubating with a 1:200 dilution of a fluorescein-isothiocyanate (FITC)-labeled goat anti-mouse IgG antibody (Jackson ImmunoResearch, Inc., West Grove, Pa.) at 37° C. for 1 hour. Coverslips were then rinsed with 2% BSA/PBS for 10 min and incubated with propidium iodide (0.5 μg/ml) for 15 min at room temperature before they were mounted with Aquamount (Lerner Laboratories, Pittsburgh, Pa.) containing 0.01% 1,4-diazobicyclo(2,2,2)octane (DABCO, Sigma). […]
To test whether 9-chloro-noscapine induces spindle abnormalities prior to apoptotic cell death indicated by nuclear fragmentation of dying cells, the spindle architecture and nuclear morphology of MCF-7 cells treated with 9-chloronoscapine was evaluated using confocal microscopy (FIG. 4). […]

COc1ccc2c(c1OC)C(=O)O[C@@H]2[C@H]1c2c(c(Cl)c3c(c2OC)OCO3)CCN1C [9-Cl-nos, (S)-3-((R)-9-chloro-4-methoxy-6-methyl-5,6,7,8-tetrahydro-[1,3]dioxolo[4,5-g]isoquinolin-5-yl)-6,7-dimethoxyisobenzofuran-1(3H)-one]
inhibition of cell proliferation (in words) [1]: effectively inhibits cell proliferation
IC50 ([1]; Homo sapiens, CCRF-CEM, 72 hours): 1200 ± 300 nM
inhibition of cell proliferation (in words) [2]: effectively inhibits cell proliferation
G0/G1 % ([3]; 25 μM, 0 h): 69 ± 5.6%
G2/M % ([3]; 25 μM, 0 h): 20.7 ± 3.4%
S % ([3]; 25 μM, 0 h): 7.5 ± 1.6%
Sub-G1 % ([3]; 25 μM, 0 h): 1.4 ± 0.5%
G0/G1 % ([3]; 25 μM, 24 h): 11.5 ± 2.7%
G2/M % ([3]; 25 μM, 24 h): 59.7 ± 5.2%
S % ([3]; 25 μM, 24 h): 4.3 ± 1.4%
Sub-G1 % ([3]; 25 μM, 24 h): 15.3 ± 2.5%
accumulation of cells in the G2/M phase (in words) ([3]; 25 μM, 24 hours): massive accumulation of cells in the G2/M phase
G0/G1 % ([3]; 25 μM, 48 h): 8 ± 3.3%
G2/M % ([3]; 25 μM, 48 h): 42.4 ± 3.8%
S % ([3]; 25 μM, 48 h): 4 ± 1.1%
Sub-G1 % ([3]; 25 μM, 48 h): 37.8 ± 3.2%
G0/G1 % ([3]; 25 μM, 72 h): 5.9 ± 1.9%
G2/M % ([3]; 25 μM, 72 h): 35.3 ± 3.9%
S % ([3]; 25 μM, 72 h): 4.1 ± 1.4%
Sub-G1 % ([3]; 25 μM, 72 h): 50.2 ± 2.5%
percent sub-G1 cells compared with noscapine ([3]; lower doses (5 μM and 10 μM), 72 hours): higher
inhibition of cell proliferation (in words) [4]: effectively inhibits cell proliferation
inhibition of cell proliferation (in words) [5]: effectively inhibits cell proliferation
spindle abnormalities / mitotic arrest [6]: mitotic arrest commencing as early as 12 hours, and maximizing at 24 hours
